From the supplement of paper PMC4862054
“And” between values parts separate entries of the source, which are not always exact repeats. Equal entries are not always repeated.

The molecules below were run on MDA-MB-453 (assay: normalised viability (% of control), CellTiter-Blue; higher = more viable cells (about 100 = DMSO control)). Details: 0.3 nM; incubation time: 72 h.
Method in brief: (§1)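 Breast cancer cell lines in 20 µl suspension were seeded onto 384-well plates pre-loaded with compound dissolved in 5 µl medium, then incubated 72 h. CellTiter-Blue reagent (2.5 µl) was added for 2 h at 37 °C and fluorescence read at 560/590 nm. Each plate was normalised to vehicle (100) and a positive kill control (0), with Z'-factor quality control. The value is normalised viability at one listed concentration of the series.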

Work on `CC[C@@H]1C(=O)N(C)c2cnc(Nc3ccc(C(=O)NC4CCN(C)CC4)cc3OC)nc2N1C1CCCC1` [BI 2536] yielded a normalised viability of 97.8%.

Same assay, conditions: 0.75 nM; incubation time: 72 h

In the case of `CC(=O)Nc1cccc(-n2c(=O)n(C3CC3)c(=O)c3c(Nc4ccc(I)cc4F)n(C)c(=O)c(C)c32)c1`, the normalised viability is reported as 113%.

Same assay, conditions: 2.5 nM; incubation time: 72 h

In the case of `CC(=O)Nc1cccc(-n2c(=O)n(C3CC3)c(=O)c3c(Nc4ccc(I)cc4F)n(C)c(=O)c(C)c32)c1`, the normalised viability is reported as 128%.

Same assay, conditions: 2.97 nM; incubation time: 72 h

With `CCN(CC)CCCC(C)Nc1c2ccc(Cl)cc2nc2ccc(OC)cc12` (stereo not given) [Mepacrine] the normalised viability was 107%.

Same assay, conditions: 3 nM; incubation time: 72 h

In the case of `Nc1ncn([C@H]2C[C@H](O)[C@@H](CO)O2)c(=O)n1` [Decitabine], the normalised viability is reported as 107% and 118%.

Compared with `O=C(/C=C/c1cccnc1)NCCCCC1CCN(C(=O)c2ccccc2)CC1` [FK-866], `Nc1ccccc1NC(=O)c1ccc(CNC(=O)OCc2cccnc2)cc1` [Entinostat] is higher in normalised viability: 31.7% for the first, 132% for the second.

Going from `CC[C@@H]1C(=O)N(C)c2cnc(Nc3ccc(C(=O)NC4CCN(C)CC4)cc3OC)nc2N1C1CCCC1` [BI 2536] to `C=CC(=O)Nc1cc2c(Nc3ccc(F)c(Cl)c3)ncnc2cc1OCCCN1CCOCC1` [Canertinib], the normalised viability rises from 56.6% to 105%.

Going from `CCN(CC)CCCC(C)Nc1c2ccc(Cl)cc2nc2ccc(OC)cc12` (stereo not given) [Mepacrine] to `COc1cc2nccc(Oc3ccc(NC(=O)Nc4cc(C)on4)c(Cl)c3)c2cc1OC` [Tivozanib], the normalised viability falls from 114% to 98%.

First: Nc1nc2[nH]cc(CCc3ccc(C(=O)N[C@@H](CCC(=O)O)C(=O)O)cc3)c2c(=O)[nH]1 [Pemetrexed]
Second: CC[C@H](Nc1ncnc2[nH]cnc12)c1nc2cccc(F)c2c(=O)n1-c1ccccc1 [CAL-101]
The normalised viability of the first is higher: 128% for the first, 97.5% for the second.

First: COc1cc([C@@H]2c3cc4c(cc3[C@@H](O[C@@H]3O[C@@H]5CO[C@@H](c6cccs6)O[C@H]5[C@H](O)[C@H]3O)[C@H]3COC(=O)[C@H]23)OCO4)cc(OC)c1O [Teniposide]
Second: O=C(Cc1ccc(-c2ccc(OCCN3CCOCC3)cc2)cn1)NCc1ccccc1 [KX2-391]
The normalised viability of the first is higher: 135% for the first, 114% for the second.

Same assay, conditions: 9.9 nM; incubation time: 72 h

`CCN(CC)CCCC(C)Nc1c2ccc(Cl)cc2nc2ccc(OC)cc12` (stereo not given) [Mepacrine] gave a normalised viability of 100%.

Same assay, conditions: 10 nM; incubation time: 72 h

Compared with `O=C(/C=C/c1cccnc1)NCCCCC1CCN(C(=O)c2ccccc2)CC1` [FK-866], `CC[C@@H]1C(=O)N(C)c2cnc(Nc3ccc(C(=O)NC4CCN(C)CC4)cc3OC)nc2N1C1CCCC1` [BI 2536] is higher in normalised viability: 22.3% for the first, 32.6% for the second.

Same assay, conditions: 30 nM; incubation time: 72 h

First: CCN(CC)CCCC(C)Nc1c2ccc(Cl)cc2nc2ccc(OC)cc12 (stereo not given) [Mepacrine]
Second: COc1cc2nccc(Oc3ccc(NC(=O)Nc4cc(C)on4)c(Cl)c3)c2cc1OC [Tivozanib]
The normalised viability of the first is higher: 96.7% for the first, 92.9% for the second.

First: Nc1nc2[nH]cc(CCc3ccc(C(=O)N[C@@H](CCC(=O)O)C(=O)O)cc3)c2c(=O)[nH]1 [Pemetrexed]
Second: Nc1ccccc1NC(=O)c1ccc(CNC(=O)OCc2cccnc2)cc1 [Entinostat]
The normalised viability of the first is lower: 96% for the first, 130% for the second.

First: COc1cc([C@@H]2c3cc4c(cc3[C@@H](O[C@@H]3O[C@@H]5CO[C@@H](c6cccs6)O[C@H]5[C@H](O)[C@H]3O)[C@H]3COC(=O)[C@H]23)OCO4)cc(OC)c1O [Teniposide]
Second: C=CC(=O)Nc1cc2c(Nc3ccc(F)c(Cl)c3)ncnc2cc1OCCCN1CCOCC1 [Canertinib]
The normalised viability of the first is higher: 92.8% for the first, 86.9% for the second.

First: O=C(Cc1ccc(-c2ccc(OCCN3CCOCC3)cc2)cn1)NCc1ccccc1 [KX2-391]
Second: CC[C@H](Nc1ncnc2[nH]cnc12)c1nc2cccc(F)c2c(=O)n1-c1ccccc1 [CAL-101]
The normalised viability of the first is lower: 72.6% for the first, 91.7% for the second.

Same assay, conditions: 100 nM; incubation time: 72 h

Compared with `CCN(CC)CCCC(C)Nc1c2ccc(Cl)cc2nc2ccc(OC)cc12` (stereo not given) [Mepacrine], `COc1cc2nccc(Oc3ccc(NC(=O)Nc4cc(C)on4)c(Cl)c3)c2cc1OC` [Tivozanib] is lower in normalised viability: 102% for the first, 96.3% for the second.

First: Nc1nc2[nH]cc(CCc3ccc(C(=O)N[C@@H](CCC(=O)O)C(=O)O)cc3)c2c(=O)[nH]1 [Pemetrexed]
Second: Nc1ccccc1NC(=O)c1ccc(CNC(=O)OCc2cccnc2)cc1 [Entinostat]
The normalised viability of the first is higher: 114% for the first, 110% for the second.

First: COc1cc([C@@H]2c3cc4c(cc3[C@@H](O[C@@H]3O[C@@H]5CO[C@@H](c6cccs6)O[C@H]5[C@H](O)[C@H]3O)[C@H]3COC(=O)[C@H]23)OCO4)cc(OC)c1O [Teniposide]
Second: C=CC(=O)Nc1cc2c(Nc3ccc(F)c(Cl)c3)ncnc2cc1OCCCN1CCOCC1 [Canertinib]
The normalised viability of the first is higher: 109% for the first, 72.6% for the second.

First: O=C(Cc1ccc(-c2ccc(OCCN3CCOCC3)cc2)cn1)NCc1ccccc1 [KX2-391]
Second: CC[C@H](Nc1ncnc2[nH]cnc12)c1nc2cccc(F)c2c(=O)n1-c1ccccc1 [CAL-101]
The normalised viability of the first is lower: 25% for the first, 89.8% for the second.

What follows are molecules tested on MDA-MB-468 in the same assay as above. Details: 0.25 nM; incubation time: 72 h.
Method in brief: as §1

Molecule `CC(=O)Nc1cccc(-n2c(=O)n(C3CC3)c(=O)c3c(Nc4ccc(I)cc4F)n(C)c(=O)c(C)c32)c1` has a normalised viability of 110%.

Same assay, conditions: 0.99 nM; incubation time: 72 h

In the case of `CCN(CC)CCCC(C)Nc1c2ccc(Cl)cc2nc2ccc(OC)cc12` (stereo not given) [Mepacrine], the normalised viability is reported as 108%.

Same assay, conditions: 1 nM; incubation time: 72 h

Compared with `O=C(/C=C/c1cccnc1)NCCCCC1CCN(C(=O)c2ccccc2)CC1` [FK-866], `CC[C@@H]1C(=O)N(C)c2cnc(Nc3ccc(C(=O)NC4CCN(C)CC4)cc3OC)nc2N1C1CCCC1` [BI 2536] is higher in normalised viability: 91.9% for the first, 107% for the second.

Same assay, conditions: 10 nM; incubation time: 72 h

For `Nc1ncn([C@H]2C[C@H](O)[C@@H](CO)O2)c(=O)n1` [Decitabine], the normalised viability was 109% and 102%.

Going from `CCN(CC)CCCC(C)Nc1c2ccc(Cl)cc2nc2ccc(OC)cc12` (stereo not given) [Mepacrine] to `COc1cc2nccc(Oc3ccc(NC(=O)Nc4cc(C)on4)c(Cl)c3)c2cc1OC` [Tivozanib], the normalised viability falls from 104% to 103%.

Going from `Nc1nc2[nH]cc(CCc3ccc(C(=O)N[C@@H](CCC(=O)O)C(=O)O)cc3)c2c(=O)[nH]1` [Pemetrexed] to `Nc1ccccc1NC(=O)c1ccc(CNC(=O)OCc2cccnc2)cc1` [Entinostat], the normalised viability rises from 97.7% to 102%.

Going from `COc1cc([C@@H]2c3cc4c(cc3[C@@H](O[C@@H]3O[C@@H]5CO[C@@H](c6cccs6)O[C@H]5[C@H](O)[C@H]3O)[C@H]3COC(=O)[C@H]23)OCO4)cc(OC)c1O` [Teniposide] to `C=CC(=O)Nc1cc2c(Nc3ccc(F)c(Cl)c3)ncnc2cc1OCCCN1CCOCC1` [Canertinib], the normalised viability falls from 99.1% to 89.2%.

Going from `O=C(Cc1ccc(-c2ccc(OCCN3CCOCC3)cc2)cn1)NCc1ccccc1` [KX2-391] to `CC[C@H](Nc1ncnc2[nH]cnc12)c1nc2cccc(F)c2c(=O)n1-c1ccccc1` [CAL-101], the normalised viability rises from 104% to 110%.

Same assay, conditions: 25 nM; incubation time: 72 h

For `CC(=O)Nc1cccc(-n2c(=O)n(C3CC3)c(=O)c3c(Nc4ccc(I)cc4F)n(C)c(=O)c(C)c32)c1`, the normalised viability was 92.6%.

Same assay, conditions: 99 nM; incubation time: 72 h

Molecule `CCN(CC)CCCC(C)Nc1c2ccc(Cl)cc2nc2ccc(OC)cc12` (stereo not given) [Mepacrine] has a normalised viability of 106%.

Same assay, conditions: 100 nM; incubation time: 72 h

Work on `O=C(/C=C/c1cccnc1)NCCCCC1CCN(C(=O)c2ccccc2)CC1` [FK-866] yielded a normalised viability of 1.9%.
